# Patent publication US9944603B2, “Compounds and methods for the treatment of cystic fibrosis” (Flatley Discovery Lab, LLC, priority 2013, dated 2018)
# Target: T1, human F508del CFTR (Homo sapiens, UniProt P13569, DEL508-508)
# T1 construct: expressed in transfected cells
# Experiment: CFTR-YFP Assay, CFTR Corrector Protocol (YFP flux assay)
# Assay type: cell-based
# Details: for Emax: normalized to the positive control, read-out: EMAX (% Efficacy, EMAX normalized to the positive control)
# T1 sequence (P13569 with tags, fused parts or gaps DEL508-508): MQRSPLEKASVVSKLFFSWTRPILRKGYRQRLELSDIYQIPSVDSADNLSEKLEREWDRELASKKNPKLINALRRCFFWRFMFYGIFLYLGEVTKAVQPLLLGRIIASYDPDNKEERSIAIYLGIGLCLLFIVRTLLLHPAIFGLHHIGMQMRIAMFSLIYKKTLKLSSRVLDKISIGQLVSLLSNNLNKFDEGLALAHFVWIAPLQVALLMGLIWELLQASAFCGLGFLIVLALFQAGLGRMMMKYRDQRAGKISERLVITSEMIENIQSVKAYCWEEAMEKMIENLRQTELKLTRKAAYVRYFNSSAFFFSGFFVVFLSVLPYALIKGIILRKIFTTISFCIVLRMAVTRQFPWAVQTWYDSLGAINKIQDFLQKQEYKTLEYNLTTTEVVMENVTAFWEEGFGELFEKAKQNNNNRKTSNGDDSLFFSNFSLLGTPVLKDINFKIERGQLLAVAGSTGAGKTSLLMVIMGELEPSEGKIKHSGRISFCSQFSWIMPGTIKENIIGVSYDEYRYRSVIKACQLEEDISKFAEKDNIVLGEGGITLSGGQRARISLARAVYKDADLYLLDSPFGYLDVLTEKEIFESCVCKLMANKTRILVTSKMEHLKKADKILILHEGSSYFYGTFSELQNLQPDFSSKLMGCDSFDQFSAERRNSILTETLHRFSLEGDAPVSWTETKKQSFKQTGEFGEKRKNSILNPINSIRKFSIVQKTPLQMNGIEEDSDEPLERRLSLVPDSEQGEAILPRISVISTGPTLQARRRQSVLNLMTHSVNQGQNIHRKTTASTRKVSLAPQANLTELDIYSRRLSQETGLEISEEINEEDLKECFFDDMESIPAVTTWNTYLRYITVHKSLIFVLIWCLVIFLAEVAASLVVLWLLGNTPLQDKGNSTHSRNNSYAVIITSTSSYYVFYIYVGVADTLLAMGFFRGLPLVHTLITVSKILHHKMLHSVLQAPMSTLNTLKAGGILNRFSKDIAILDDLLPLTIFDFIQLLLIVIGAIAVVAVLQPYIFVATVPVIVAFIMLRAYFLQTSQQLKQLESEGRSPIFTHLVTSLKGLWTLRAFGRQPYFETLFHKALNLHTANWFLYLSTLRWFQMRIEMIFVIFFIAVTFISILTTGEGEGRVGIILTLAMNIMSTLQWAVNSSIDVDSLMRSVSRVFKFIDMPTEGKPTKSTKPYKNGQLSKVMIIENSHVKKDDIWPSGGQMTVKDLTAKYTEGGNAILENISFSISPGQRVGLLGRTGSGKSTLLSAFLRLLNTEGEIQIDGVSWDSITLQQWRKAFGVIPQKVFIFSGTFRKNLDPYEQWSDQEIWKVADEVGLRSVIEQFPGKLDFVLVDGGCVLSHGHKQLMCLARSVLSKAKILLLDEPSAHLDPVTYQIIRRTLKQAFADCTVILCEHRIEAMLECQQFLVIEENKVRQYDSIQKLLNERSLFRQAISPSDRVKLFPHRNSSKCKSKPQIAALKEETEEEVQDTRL
compound,measurement,value
O=S(=O)(c1ccc2c(c1)OC(F)(F)O2)N1CCC(n2c(-c3ccccc3OC(F)F)nc3cccnc32)CC1 [Example 126],EC50,< 10 µM
same,Emax,30 to 80%
COc1ccc2nc(-c3ccncc3F)n(C3CCN(S(=O)(=O)c4ccc5c(c4)OC(F)(F)O5)CC3)c2n1 [Example 127],EC50,< 10 µM
same,Emax,30 to 80%
O=S(=O)(c1ccc2c(c1)OC(F)(F)O2)N1CCC(n2c(-c3ccncn3)nc3cccnc32)CC1 [Example 128],EC50,< 10 µM
same,Emax,10 to 30%
O=S(=O)(c1ccc(OC(F)F)cc1)N1CCC(n2c(-c3ccncc3F)nc3nccnc32)CC1 [Example 129],EC50,< 10 µM
same,Emax,10 to 30%
O=S(=O)(c1ccc2c(c1)OC(F)(F)O2)N1CCC(n2c(-c3ccccc3F)nc3cccnc32)CC1 [Example 130],EC50,< 10 µM
same,Emax,30 to 80%
CCc1ccc(S(=O)(=O)N2CCC(n3c(-c4ccncn4)nc4cccnc43)CC2)cc1 [Example 131],EC50,< 10 µM
same,Emax,10 to 30%
Cc1nc2ccc(S(=O)(=O)N3CCC(n4c(-c5ccncc5F)nc5cccnc54)CC3)cc2s1 [Example 132],EC50,< 10 µM
same,Emax,30 to 80%
Cc1nc2ccc(S(=O)(=O)N3CCC(n4c(-c5ccncc5F)nc5cccnc54)CC3)cc2o1 [Example 133],EC50,< 10 µM
same,Emax,> 80%
Cc1nc2ccc(S(=O)(=O)N3CCC(n4c(-c5ccc(F)cc5F)nc5cccnc54)CC3)cc2o1 [Example 134],EC50,< 10 µM
same,Emax,30 to 80%
[2H]C1([2H])Oc2ccc(S(=O)(=O)N3CCC(n4c(-c5cccnc5Cl)nc5cccnc54)CC3)cc2O1 [Example 135],EC50,10 to 20 µM
same,Emax,10 to 30%
[2H]C1([2H])Oc2ccc(S(=O)(=O)N3CCC(n4c(-c5ccncc5F)nc5cccnc54)CC3)cc2O1 [Example 136],EC50,< 10 µM
same,Emax,10 to 30%
O=S(=O)(c1ccc2c(c1)OC(F)(F)O2)N1CCC(n2c(-c3ccncc3Cl)nc3cnccc32)CC1 [Example 137],EC50,10 to 20 µM
same,Emax,10 to 30%
CCc1ccc(S(=O)(=O)N2CCC(n3c(-c4ccncc4F)nc4ccc(OC)nc43)CC2)cc1 [Example 138],EC50,> 20 µM
same,Emax,30 to 80%
Cc1noc2ccc(S(=O)(=O)N3CCC(n4c(-c5ccncc5F)nc5cccnc54)CC3)cc12 [Example 139],EC50,> 20 µM
same,Emax,10 to 30%
Cc1noc2ccc(S(=O)(=O)N3CCC(n4c(-c5ccc(F)cc5F)nc5cccnc54)CC3)cc12 [Example 140],EC50,> 20 µM
same,Emax,10 to 30%
Cc1n[nH]c2ccc(S(=O)(=O)N3CCC(n4c(-c5ccncc5F)nc5cccnc54)CC3)cc12 [Example 141],EC50,< 10 µM
same,Emax,10 to 30%
Cc1cc2cc(S(=O)(=O)N3CCC(n4c(-c5ccncc5F)nc5cccnc54)CC3)ccc2[nH]1 [Example 142],EC50,< 10 µM
same,Emax,10 to 30%
Cc1cc2cc(S(=O)(=O)N3CCC(n4c(-c5ccc(F)cc5F)nc5cccnc54)CC3)ccc2[nH]1 [Example 143],EC50,< 10 µM
same,Emax,10 to 30%
Cc1n[nH]c2ccc(S(=O)(=O)N3CCC(n4c(-c5ccc(F)cc5F)nc5cccnc54)CC3)cc12 [Example 144],EC50,< 10 µM
same,Emax,10 to 30%
CC(=O)N1c2ccc(S(=O)(=O)N3CCC(n4c(-c5ccncc5F)nc5cccnc54)CC3)cc2CC1C (stereo not drawn) [Example 145],EC50,< 10 µM
same,Emax,10 to 30%
CC(=O)N1c2ccc(S(=O)(=O)N3CCC(n4c(-c5ccc(F)cc5F)nc5cccnc54)CC3)cc2CC1C (stereo not drawn) [Example 146],EC50,< 10 µM
same,Emax,10 to 30%
Cc1cc2cc(S(=O)(=O)N3CCC(n4c(-c5ccncn5)nc5cccnc54)CC3)ccc2[nH]1 [Example 147],EC50,< 10 µM
same,Emax,10 to 30%
CC1Cc2cc(S(=O)(=O)N3CCC(n4c(-c5ccncc5F)nc5cccnc54)CC3)ccc2N1 (stereo not drawn) [Example 148],EC50,< 10 µM
same,Emax,10 to 30%
CC1Cc2cc(S(=O)(=O)N3CCC(n4c(-c5ccc(F)cc5F)nc5cccnc54)CC3)ccc2N1 (stereo not drawn) [Example 149],EC50,< 10 µM
same,Emax,10 to 30%
COc1ccc2c(c1)nc(-c1ccncc1F)n2C1CCN(S(=O)(=O)c2ccc3c(c2)OC(F)(F)O3)CC1 [Example 150],EC50,10 to 20 µM
same,Emax,30 to 80%
CCc1ccc(S(=O)(=O)N2CCC(n3c(-c4ccncc4F)nc4cc(OC)ccc43)CC2)cc1 [Example 151],EC50,< 10 µM
same,Emax,30 to 80%
CC(=O)N1c2ccc(S(=O)(=O)N3CCC(n4c(-c5ccncn5)nc5cccnc54)CC3)cc2CC1C (stereo not drawn) [Example 152],EC50,10 to 20 µM
same,Emax,10 to 30%
COc1ccc2c(c1)nc(-c1ccccc1Cl)n2C1CCN(S(=O)(=O)c2ccc3c(c2)OC(F)(F)O3)CC1 [Example 153],EC50,< 10 µM
same,Emax,30 to 80%
COc1ccc2c(c1)nc(-c1ccncc1Cl)n2C1CCN(S(=O)(=O)c2ccc3c(c2)OC(F)(F)O3)CC1 [Example 154],EC50,< 10 µM
same,Emax,30 to 80%
CCc1ccc(S(=O)(=O)N2CCC(n3c(-c4ccccc4Cl)nc4cc(OC)ccc43)CC2)cc1 [Example 155],EC50,< 10 µM
same,Emax,30 to 80%
CCc1ccc(S(=O)(=O)N2CCC(n3c(-c4ccncc4Cl)nc4cc(OC)ccc43)CC2)cc1 [Example 156],EC50,< 10 µM
same,Emax,30 to 80%
O=S(=O)(c1ccc2snc(Cl)c2c1)N1CCC(n2c(-c3ccncc3Cl)nc3cccnc32)CC1 [Example 157],EC50,< 10 µM
same,Emax,10 to 30%
O=S(=O)(c1ccc2snc(Cl)c2c1)N1CCC(n2c(-c3ccncc3F)nc3cccnc32)CC1 [Example 158],EC50,10 to 20 µM
same,Emax,10 to 30%
O=S(=O)(c1ccc2snc(Cl)c2c1)N1CCC(n2c(-c3ccc(F)cc3F)nc3cccnc32)CC1 [Example 159],EC50,< 10 µM
same,Emax,10 to 30%
COc1ccc2c(c1)nc(-c1ccncc1Cl)n2C1CCN(S(=O)(=O)c2ccc3nc(C)oc3c2)CC1 [Example 160],EC50,< 10 µM
same,Emax,30 to 80%
O=S(=O)(c1ccc2cc[nH]c2c1)N1CCC(n2c(-c3ccncc3Cl)nc3cccnc32)CC1 [Example 161],EC50,10 to 20 µM
same,Emax,10 to 30%
O=S(=O)(c1ccc2cc[nH]c2c1)N1CCC(n2c(-c3ccncc3F)nc3cccnc32)CC1 [Example 162],EC50,< 10 µM
same,Emax,10 to 30%
COc1ccc2c(c1)nc(-c1ccncc1F)n2C1CCN(S(=O)(=O)c2ccc3nc(C)oc3c2)CC1 [Example 163],EC50,< 10 µM
same,Emax,> 80%
COc1ccc2c(c1)nc(-c1ccc(F)cc1F)n2C1CCN(S(=O)(=O)c2ccc3nc(C)oc3c2)CC1 [Example 164],EC50,< 10 µM
same,Emax,> 80%
Cc1ccnc2c1nc(-c1ccncc1F)n2C1CCN(S(=O)(=O)c2ccc3c(c2)OC(F)(F)O3)CC1 [Example 165],EC50,< 10 µM
same,Emax,30 to 80%
Cc1ccnc2c1nc(-c1ccncc1Cl)n2C1CCN(S(=O)(=O)c2ccc3c(c2)OC(F)(F)O3)CC1 [Example 166],EC50,< 10 µM
same,Emax,30 to 80%
CCc1ccc(S(=O)(=O)N2CCC(n3c(-c4ccccc4Cl)nc4cc(O)ccc43)CC2)cc1 [Example 167],EC50,> 20 µM
same,Emax,10 to 30%
CCc1ccc(S(=O)(=O)N2CCC(n3c(-c4ccncc4Cl)nc4cc(O)ccc43)CC2)cc1 [Example 168],EC50,< 10 µM
same,Emax,30 to 80%
CCc1ccc(S(=O)(=O)N2CCC(n3c(-c4ccncc4F)nc4c(OC)ccnc43)CC2)cc1 [Example 169],EC50,< 10 µM
same,Emax,30 to 80%
CCc1ccc(S(=O)(=O)N2CCC(n3c(-c4ccncc4Cl)nc4c(OC)ccnc43)CC2)cc1 [Example 170],EC50,> 20 µM
same,Emax,10 to 30%
COc1ccc(S(=O)(=O)N2CCC(N(C(=O)c3ccccc3)c3ccccn3)CC2)cc1F [Example 171],EC50,< 10 µM
same,Emax,10 to 30%
COc1ccc(S(=O)(=O)N2CCC(N(C(=O)c3ccccc3)c3cccc(C)n3)CC2)cc1Cl [Example 174],EC50,> 20 µM
same,Emax,10 to 30%
"CCc1ccc(S(=O)(=O)N2CCC(N(C(=O)Nc3ccccc3Cl)c3cccc(C)n3)CC2)cc1 [Example 175, 3-(2-chlorophenyl)-1-(1-((4-ethylphenyl)sulfonyl)piperidin-4-yl)-1-(6-methylpyridin-2-yl)urea]",EC50,< 10 µM
same,Emax,10 to 30%
COc1ccc(S(=O)(=O)N2CCC(N(C(=O)Nc3ccccc3Cl)c3cccc(C)n3)CC2)cc1Cl [Example 176],EC50,< 10 µM
same,Emax,10 to 30%
CCc1ccc(S(=O)(=O)N2CCC(N(C(=O)Nc3ccccc3Cl)c3ccccn3)CC2)cc1 [Example 177],EC50,< 10 µM
same,Emax,10 to 30%
COc1ccc(S(=O)(=O)N2CCC(N(C(=O)Nc3ccccc3Cl)c3ccccn3)CC2)cc1Cl [Example 178],EC50,< 10 µM
same,Emax,10 to 30%
CCc1ccc(S(=O)(=O)N2CCC(N(C(=O)Nc3ccccc3)c3cccc(C)n3)CC2)cc1 [Example 179],EC50,< 10 µM
same,Emax,10 to 30%
CCc1ccc(S(=O)(=O)N2CCC(N(C(=O)Nc3ccccc3)c3ccccn3)CC2)cc1 [Example 180],EC50,10 to 20 µM
same,Emax,10 to 30%
CCc1ccc(S(=O)(=O)N2CCC(N(c3ccccn3)S(=O)(=O)c3ccccc3)CC2)cc1 [Example 181],EC50,< 10 µM
same,Emax,30 to 80%
CCc1ccc(S(=O)(=O)N2CCC(N(c3ccccn3)S(=O)(=O)c3ccccc3Cl)CC2)cc1 [Example 182],EC50,< 10 µM
same,Emax,10 to 30%
CCc1ccc(S(=O)(=O)N2CCC(N(c3ccccn3)S(=O)(=O)c3c(C)cc(C)cc3C)CC2)cc1 [Example 183],EC50,< 10 µM
same,Emax,30 to 80%
COc1ccc(S(=O)(=O)N2CCC(N(c3ccccn3)S(=O)(=O)c3c(C)cc(C)cc3C)CC2)cc1Cl [Example 184],EC50,< 10 µM
same,Emax,10 to 30%
Cc1cc(C)c(S(=O)(=O)N(c2ccccn2)C2CCN(S(=O)(=O)c3ccc4c(c3)OC(F)(F)O4)CC2)c(C)c1 [Example 185],EC50,< 10 µM
same,Emax,30 to 80%
CCc1ccc(S(=O)(=O)N2CCC(N(c3cccc(C)n3)S(=O)(=O)c3ccccc3)CC2)cc1 [Example 186],EC50,< 10 µM
same,Emax,10 to 30%
COc1ccc(S(=O)(=O)N2CCC(N(c3cccc(C)n3)S(=O)(=O)c3ccccc3)CC2)cc1Cl [Example 187],EC50,< 10 µM
same,Emax,10 to 30%
